In ChEMBL document CHEMBL3885881, “DrugMatrix”:

Organism: Rattus norvegicus
Test: DrugMatrix - Regimen: Daily Repeat
Assay type: toxicity, organism-based, Sprague-Dawley
Design: regimen Daily Repeat, gender Male, age 6-8 weeks
Settings: in vivo, po, route oral GAVAGE, vehicle 100 % SALINE; for ABSOLUTE BASOPHIL / ABSOLUTE EOSINOPHIL / ABSOLUTE LYMPHOCYTE / ABSOLUTE MONOCYTE / ABSOLUTE SEGMENTED NEUTROPHIL / BASOPHIL / EOSINOPHIL / ERYTHROCYTE COUNT / HEMATOCRIT / HEMOGLOBIN / LEUKOCYTE COUNT / LYMPHOCYTE / MEAN CORPUSCULAR HEMOGLOBIN / MEAN CORPUSCULAR HEMOGLOBIN CONCENTRATION / MEAN CORPUSCULAR VOLUME / MONOCYTE / NEUTROPHIL / NUCLEATED RED BLOOD CELLS / PLATELET COUNT: tissue Blood; for ALANINE AMINOTRANSFERASE / ALBUMIN / ALKALINE PHOSPHATASE / ASPARTATE AMINOTRANSFERASE / BLOOD UREA NITROGEN / CARBON DIOXIDE / CHLORIDE / CHOLESTEROL / CREATINE PHOSPHOKINASE / CREATININE / GLUCOSE / LACTATE DEHYDROGENASE / LIPASE / PHOSPHORUS / POTASSIUM / SODIUM / TOTAL BILIRUBIN / TOTAL PROTEIN / URIC ACID: tissue Plasma
[1] = 3000 mg/kg, […], dose level Low, time 7 day
[2] = 6000 mg/kg, 72 h, dose level High, time 3 day
[3] = 6000 mg/kg, […], dose level High, time 7 day

Structure (SMILES): CCO [ALCOHOL]
- ABSOLUTE BASOPHIL [1]: 0 CELLS/uL
- ABSOLUTE EOSINOPHIL [1]: 0 CELLS/uL
- ABSOLUTE LYMPHOCYTE [1]: 9669 CELLS/uL
- ABSOLUTE MONOCYTE [1]: 317.33 CELLS/uL
- ABSOLUTE SEGMENTED NEUTROPHIL [1]: 1063.67 CELLS/uL
- BASOPHIL [1]: 0%
- EOSINOPHIL [1]: 0%
- ERYTHROCYTE COUNT [1]: 5.39 x10E6/uL
- HEMATOCRIT [1]: 34.88%
- HEMOGLOBIN [1]: 13.85 G/DL
- LEUKOCYTE COUNT [1]: 11.05 x10E3/uL
- LYMPHOCYTE [1]: 87%
- MEAN CORPUSCULAR HEMOGLOBIN [1]: 25.73 pg
- MEAN CORPUSCULAR HEMOGLOBIN CONCENTRATION [1]: 39.75 G/DL
- MEAN CORPUSCULAR VOLUME [1]: 64.77 fL
- MONOCYTE [1]: 2.83%
- NEUTROPHIL [1]: 10.17%
- NUCLEATED RED BLOOD CELLS [1]: 0 /100WBC
- PLATELET COUNT [1]: 1110 x10E3/uL
- ALANINE AMINOTRANSFERASE [1]: 51.67 u/L
- ALBUMIN [1]: 4.5 G/DL
- ALKALINE PHOSPHATASE [1]: 281.33 u/L
- ASPARTATE AMINOTRANSFERASE [1]: 82.67 u/L
- BLOOD UREA NITROGEN [1]: 15 mg/dL
- CARBON DIOXIDE [1]: 31 mmol/L
- CHLORIDE [1]: 98.33 MEQ/L
- CHOLESTEROL [1]: 69.83 mg/dL
- CREATINE PHOSPHOKINASE [1]: 250 u/L
- CREATININE [1]: 0.19 mg/dL
- GLUCOSE [1]: 135.67 mg/dL
- LACTATE DEHYDROGENASE [1]: 123.5 u/L
- LIPASE [1]: 10.17 u/L
- PHOSPHORUS [1]: 10.85 mg/dL
- POTASSIUM [1]: 5.95 MEQ/L
- SODIUM [1]: 143.15 MEQ/L
- TOTAL BILIRUBIN [1]: 0.22 mg/dL
- TOTAL PROTEIN [1]: 5.93 G/DL
- URIC ACID [1]: 0.68 mg/dL
- ABSOLUTE BASOPHIL [2]: 0 CELLS/uL
- ABSOLUTE EOSINOPHIL [2]: 0 CELLS/uL
- ABSOLUTE LYMPHOCYTE [2]: 11300.5 CELLS/uL
- ABSOLUTE MONOCYTE [2]: 91.33 CELLS/uL
- ABSOLUTE SEGMENTED NEUTROPHIL [2]: 1124.83 CELLS/uL
- BASOPHIL [2]: 0%
- EOSINOPHIL [2]: 0%
- ERYTHROCYTE COUNT [2]: 5.6 x10E6/uL
- HEMATOCRIT [2]: 35.9%
- HEMOGLOBIN [2]: 13 G/DL
- LEUKOCYTE COUNT [2]: 12.52 x10E3/uL
- LYMPHOCYTE [2]: 90.17%
- MEAN CORPUSCULAR HEMOGLOBIN [2]: 23.25 pg
- MEAN CORPUSCULAR HEMOGLOBIN CONCENTRATION [2]: 36.23 G/DL
- MEAN CORPUSCULAR VOLUME [2]: 64.17 fL
- MONOCYTE [2]: 0.67%
- NEUTROPHIL [2]: 9.17%
- NUCLEATED RED BLOOD CELLS [2]: 0 /100WBC
- PLATELET COUNT [2]: 1089.17 x10E3/uL
- ALANINE AMINOTRANSFERASE [2]: 60.5 u/L
- ALBUMIN [2]: 4.18 G/DL
- ALKALINE PHOSPHATASE [2]: 281 u/L
- ASPARTATE AMINOTRANSFERASE [2]: 86.33 u/L
- BLOOD UREA NITROGEN [2]: 12.33 mg/dL
- CARBON DIOXIDE [2]: 28.33 mmol/L
- CHLORIDE [2]: 101.33 MEQ/L
- CHOLESTEROL [2]: 80.33 mg/dL
- CREATINE PHOSPHOKINASE [2]: 216.67 u/L
- CREATININE [2]: 0.46 mg/dL
- GLUCOSE [2]: 142.83 mg/dL
- LACTATE DEHYDROGENASE [2]: 151.83 u/L
- LIPASE [2]: 9.83 u/L
- PHOSPHORUS [2]: 11.08 mg/dL
- POTASSIUM [2]: 5.96 MEQ/L
- SODIUM [2]: 146.62 MEQ/L
- TOTAL BILIRUBIN [2]: 0.17 mg/dL
- TOTAL PROTEIN [2]: 6.02 G/DL
- URIC ACID [2]: 0.97 mg/dL
- ABSOLUTE BASOPHIL [3]: 0 CELLS/uL
- ABSOLUTE EOSINOPHIL [3]: 38 CELLS/uL
- ABSOLUTE LYMPHOCYTE [3]: 9373.67 CELLS/uL
- ABSOLUTE MONOCYTE [3]: 256.5 CELLS/uL
- ABSOLUTE SEGMENTED NEUTROPHIL [3]: 1531.83 CELLS/uL
- BASOPHIL [3]: 0%
- EOSINOPHIL [3]: 0.33%
- ERYTHROCYTE COUNT [3]: 5.4 x10E6/uL
- HEMATOCRIT [3]: 33.48%
- HEMOGLOBIN [3]: 13.42 G/DL
- LEUKOCYTE COUNT [3]: 11.2 x10E3/uL
- LYMPHOCYTE [3]: 84.5%
- MEAN CORPUSCULAR HEMOGLOBIN [3]: 24.92 pg
- MEAN CORPUSCULAR HEMOGLOBIN CONCENTRATION [3]: 40.07 G/DL
- MEAN CORPUSCULAR VOLUME [3]: 62.18 fL
- MONOCYTE [3]: 2.33%
- NEUTROPHIL [3]: 12.83%
- NUCLEATED RED BLOOD CELLS [3]: 0 /100WBC
- PLATELET COUNT [3]: 1292.83 x10E3/uL
- ALANINE AMINOTRANSFERASE [3]: 65.5 u/L
- ALBUMIN [3]: 4.38 G/DL
- ALKALINE PHOSPHATASE [3]: 202.33 u/L
- ASPARTATE AMINOTRANSFERASE [3]: 86.17 u/L
- BLOOD UREA NITROGEN [3]: 13 mg/dL
- CARBON DIOXIDE [3]: 29.33 mmol/L
- CHLORIDE [3]: 100.17 MEQ/L
- CHOLESTEROL [3]: 67.17 mg/dL
- CREATINE PHOSPHOKINASE [3]: 206 u/L
- CREATININE [3]: 0.19 mg/dL
- GLUCOSE [3]: 138.83 mg/dL
- LACTATE DEHYDROGENASE [3]: 109 u/L
- LIPASE [3]: 10 u/L
- PHOSPHORUS [3]: 10.48 mg/dL
- POTASSIUM [3]: 5.88 MEQ/L
- SODIUM [3]: 144.13 MEQ/L
- TOTAL BILIRUBIN [3]: 0.18 mg/dL
- TOTAL PROTEIN [3]: 5.83 G/DL
- URIC ACID [3]: 0.88 mg/dL
